Test: mn = molality of the nth substance listed, in mol/kg
Settings: 101 kPa, Liquid; for speed of sound: Linear variable-path acoustic interferometer; for mass density: Pycnometric method

N=C(N)NCCC[C@H](N)C(=O)O [L-arginine] + O
Settings	mass density [kg/m3]	speed of sound [m/s]
275.15 K, m1 = 0.0381	1002.25	1416.9
275.15 K, m1 = 0.0808	1004.4	1422.5
275.15 K, m1 = 0.1223	1006.6	1427.9
275.15 K, m1 = 0.1659	1008.86	1433.5
275.15 K, m1 = 0.2092	1010.74	1439.2
275.15 K, m1 = 0.2503	1012.81	1444.5
275.15 K, m1 = 0.2909	1014.82	1449.8
275.15 K, m1 = 0.3371	1017.05	1455.8
275.15 K, m1 = 0.3742	1018.75	1460.6
275.15 K, m1 = 0.4153	1020.74	1465.9
275.15 K, m1 = 0.4529	1022.49	1470.8
275.15 K, m1 = 0.5067	1024.97	1477.8
279.15 K, m1 = 0.0381	1002.12	1434.5
279.15 K, m1 = 0.0808	1004.33	1439.6
279.15 K, m1 = 0.1225	1005.88	1444.5
279.15 K, m1 = 0.1847	1009.11	1451.9
279.15 K, m1 = 0.2092	1010.49	1454.8
279.15 K, m1 = 0.25	1012.51	1459.7
279.15 K, m1 = 0.2932	1014.5	1464.8
279.15 K, m1 = 0.3459	1017.1	1471.1
279.15 K, m1 = 0.3742	1018.39	1474.4
279.15 K, m1 = 0.4177	1020.39	1479.6
279.15 K, m1 = 0.4601	1022.35	1484.6
279.15 K, m1 = 0.5176	1025.01	1491.4
283.15 K, m1 = 0.0379	1001.53	1451.4
283.15 K, m1 = 0.0806	1003.83	1456.3
283.15 K, m1 = 0.1228	1005.96	1461.2
283.15 K, m1 = 0.1755	1008.59	1467.2
283.15 K, m1 = 0.2052	1009.81	1470.7
283.15 K, m1 = 0.2496	1012.14	1475.8
283.15 K, m1 = 0.291	1014.12	1480.5
283.15 K, m1 = 0.3386	1016.31	1486
283.15 K, m1 = 0.3757	1017.99	1490.3
283.15 K, m1 = 0.416	1019.92	1495
283.15 K, m1 = 0.4566	1021.75	1499.6
283.15 K, m1 = 0.5031	1023.84	1505

C[C@@H](O)[C@H](N)C(=O)O [L-threonine] + O
Settings	mass density [kg/m3]	speed of sound [m/s]
275.15 K, m1 = 0.0337	1001.56	1415.3
275.15 K, m1 = 0.0672	1003.12	1418.7
275.15 K, m1 = 0.1009	1004.6	1422
275.15 K, m1 = 0.1338	1006.09	1425.3
275.15 K, m1 = 0.1674	1007.23	1428.6
275.15 K, m1 = 0.2002	1008.62	1431.8
275.15 K, m1 = 0.2334	1010.1	1435.1
275.15 K, m1 = 0.2689	1011.67	1438.6
275.15 K, m1 = 0.3009	1012.89	1441.8
275.15 K, m1 = 0.3345	1014.39	1445.1
275.15 K, m1 = 0.3679	1015.8	1448.4
275.15 K, m1 = 0.4054	1017.24	1452.2
279.15 K, m1 = 0.0337	1001.55	1433.1
279.15 K, m1 = 0.0671	1002.96	1436.2
279.15 K, m1 = 0.101	1004.52	1439.3
279.15 K, m1 = 0.1342	1005.69	1442.3
279.15 K, m1 = 0.1665	1006.97	1445.3
279.15 K, m1 = 0.2002	1008.49	1448.4
279.15 K, m1 = 0.235	1009.98	1451.6
279.15 K, m1 = 0.2673	1011.46	1454.5
279.15 K, m1 = 0.2996	1012.62	1457.5
279.15 K, m1 = 0.3683	1015.5	1463.8
279.15 K, m1 = 0.4005	1016.91	1466.8
283.15 K, m1 = 0.0224	1000.69	1449
283.15 K, m1 = 0.0677	1002.52	1453.1
283.15 K, m1 = 0.101	1004.25	1456.1
283.15 K, m1 = 0.1362	1005.58	1459.2
283.15 K, m1 = 0.1665	1006.81	1461.9
283.15 K, m1 = 0.2005	1008.32	1465
283.15 K, m1 = 0.2345	1009.56	1468.1
283.15 K, m1 = 0.2725	1011.21	1471.5
283.15 K, m1 = 0.2996	1012.33	1473.9
283.15 K, m1 = 0.3351	1013.76	1477.1
283.15 K, m1 = 0.3677	1015.01	1480
283.15 K, m1 = 0.3928	1016.16	1482.3

CC(C)[C@H](N)C(=O)O [L-valine] + O
Settings	mass density [kg/m3]	speed of sound [m/s]
275.15 K, m1 = 0.034	1000.99	1416.5
275.15 K, m1 = 0.0672	1001.86	1420.9
275.15 K, m1 = 0.1028	1002.93	1425.7
275.15 K, m1 = 0.1349	1003.79	1429.9
275.15 K, m1 = 0.1675	1004.61	1434.3
275.15 K, m1 = 0.2021	1005.54	1438.9
275.15 K, m1 = 0.233	1006.4	1443
275.15 K, m1 = 0.2667	1007.34	1447.5
275.15 K, m1 = 0.3009	1008.25	1452
275.15 K, m1 = 0.3669	1009.99	1460.8
275.15 K, m1 = 0.4066	1011.08	1466.1
279.15 K, m1 = 0.0341	1000.9	1434.1
279.15 K, m1 = 0.0671	1001.87	1438.1
279.15 K, m1 = 0.1009	1002.75	1442.1
279.15 K, m1 = 0.1418	1003.8	1447
279.15 K, m1 = 0.1696	1004.51	1450.4
279.15 K, m1 = 0.2021	1005.51	1454.3
279.15 K, m1 = 0.2382	1006.36	1458.6
279.15 K, m1 = 0.2782	1007.44	1463.4
279.15 K, m1 = 0.2983	1007.95	1465.8
279.15 K, m1 = 0.3342	1008.96	1470.2
279.15 K, m1 = 0.3652	1009.77	1473.9
279.15 K, m1 = 0.3951	1010.57	1477.5
283.15 K, m1 = 0.0341	1000.61	1450.7
283.15 K, m1 = 0.0669	1001.41	1454.2
283.15 K, m1 = 0.1015	1002.33	1458
283.15 K, m1 = 0.1349	1003.08	1461.6
283.15 K, m1 = 0.1666	1004.17	1465
283.15 K, m1 = 0.2025	1005.15	1468.9
283.15 K, m1 = 0.2321	1006.04	1472.1
283.15 K, m1 = 0.2787	1007.06	1477.1
283.15 K, m1 = 0.297	1007.53	1479.1
283.15 K, m1 = 0.3314	1008.49	1482.8
283.15 K, m1 = 0.3663	1009.41	1486.6
283.15 K, m1 = 0.3972	1010.11	1489.9
